From patent publication US8613931B2, “Compounds for treating beta-amyloidoses” (Affiris AG, priority 2008, dated 2013)
Square brackets hold non-standard residues; d marks the D form. Ends that are not written are not given here. pGlu = O=C1CC[C@@H](C(=O)O)N1

What was measured:
[1] = test system: monoclonal antibody MV-003; assay: In vitro binding assay (ELISA), parental antibody MV-003; design: species or system BalbC mice; settings: peptide-BSA on ELISA plate; OD halfmax, dilution factor 1:X of parental AB MV-003
Experimental: 1. In vitro binding assay (ELISA)
Peptides derived from Phage Display as well as variants thereof were coupled to BSA and bound to ELISA plates (1 μM; as indicated in the respective figures) and subsequently incubated with the monoclonal antibody that was used for the screening procedure to analyse binding capacity of identified peptides.

[2] = test system: monoclonal antibody MV-003; assay: In vitro inhibition assay (ELISA), MV-003 binding to original epitope; design: species or system BalbC mice; settings: OD at 10 μg peptide compared to original peptide
Experimental: 2. In vitro inhibition assay (ELISA)
Different amounts of peptides (concentrations ranging from 10 μg to 0.08 μg; serial dilutions), derived from Phage Display were incubated with the monoclonal antibody that was used for the screening procedure. Peptides diminishing subsequent binding of the antibody to the original epitope coated on ELISA plates were considered as inhibiting in this assay.

[3] = test system: full length and/or truncated and modified forms of Aβ; assay: In vivo characterisation of mimotopes: detection of Aβ/truncated/modified forms; design: species or system C57/bl6 mice; key: +: All peptides listed in Table 5 mount specific immune reactions against full length and/or truncated and modified forms of Aβ or fragments thereof; settings: MV-003 derived mimotopes; mimotope vaccination
Experimental: (§1) Inhibiting as well as non-inhibiting peptides were coupled to KLH and injected into mice (wildtype C57/Bl6 mice; subcutaneous injection into the flank) together with an appropriate adjuvant (aluminium hydroxide). Animals were vaccinated 3-6 times in biweekly intervals and sera were taken biweekly as well. Titers to injected peptides, as well as to an irrelevant peptide were determined with every serum. Furthermore, titers against the recombinant human Aβ protein, and against original peptides were determined respectively. In general sera were analysed by reaction against peptides coupled to Bovine Serum Albumin (BSA) and recombinant full length proteins which were immobilised on ELISA plates. Titers were determined using anti mouse IgG specific antibodies. For detailed results see FIGS. 6, 7 and 8 respectively.
Female C57/bl6 mice, 5-6 mice per group, were subcutaneously immunized with 30 μg peptide coupled to KLH. Control groups were administered original epitope-KLH conjugates respectively. As adjuvant alum was used (always 1 mg per mouse). […] The in vitro ELISA assay to determine the antibody titer was performed with sera of single mice after each vaccination in a two week interval (see FIGS. 6 and 7 respectively). The wells of the ELISA plate were coated with mimotope-BSA conjugate and an irrelevant peptide-BSA conjugate (negative control). The positive control was performed by reaction of the parental antibody with the respective mimotope-BSA conjugate. The detection was performed with anti-mouse IgG. Additionally, recombinant proteins were immobilised on ELISA plates and sera reacted accordingly. FIGS. 6 to 8 show representative examples for assays used to characterise mimotopes in vivo.

Tg2576 AD mouse model = assay: Area occupied by amyloid plaques in Tg2576 mice after mimotope vaccination; type: in vivo; settings: Tg2576, 6 s.c. injections at monthly intervals, peptide-KLH conjugate with ALUM
p4373 = assay: Mimotope vaccination, serum reactivity against p4373; type: in vivo, C57/bl6 mice; settings: sera of mice s.c. immunized with 30 μg peptide coupled to KLH, alum
Experimental: as §1
(§2) Female C57/bl6 mice, 5-6 mice per group, were subcutaneously immunized with 30 μg peptide coupled to KLH. Control groups were administered original epitope-KLH conjugates respectively. As adjuvant alum was used (always 1 mg per mouse). […] The in vitro ELISA assay to determine the antibody titer was performed with sera of single mice after each vaccination in a two week interval (see FIGS. 6 and 7 respectively). The wells of the ELISA plate were coated with mimotope-BSA conjugate and an irrelevant peptide-BSA conjugate (negative control). […]

p4371 = assay: Mimotope vaccination, serum reactivity against p4371; type: in vivo, C57/bl6 mice; settings: sera of mice s.c. immunized with 30 μg peptide coupled to KLH, alum
Experimental: as §1, §2

IRWDQPC [p4756]
Binding Capacity [1]: 3 (strong binding :>60000) | Inhibition Capacity [2]: 1 (Weaker than original epitope (OD of 10 μg peptide below 12 times of original peptide))

IRYDAPLC [p4397]
Detection of Aβ/truncated/modified forms [3]: + | Inhibition Capacity [2]: 1 (Weaker than original epitope (OD of 10 μg peptide below 12 times of original peptide))

IRWDTPC [p4395]
Detection of Aβ/truncated/modified forms [3]: + | Inhibition Capacity [2]: 1 (Weaker than original epitope (OD of 10 μg peptide below 12 times of original peptide)) | average area occupied by amyloid plaques (Tg2576 AD mouse model; mAb 3A5 staining, control group 0.35%): 0.21% | reduction of area occupied by amyloid plaques following mimotope treatment (Tg2576 AD mouse model; versus control group): 38%

EFRHDS-C (EFRHDSC) [p4371]
immune response against p4373 (p4373): mount relevant titers

IRWDTSLC [p4728]
Binding Capacity [1]: 3 (strong binding :>60000) | Inhibition Capacity [2]: 2 (strong inhibition (as original epitope; OD of 10 μg peptide below 5 times of original peptide))

p(E)FRHDS-C ([pGlu]FRHDSC) [p4373]
immune response against p4371 (p4371): mount relevant titers
